In patent US20230088528A1, “USE OF LIPID IN PREPARATION OF NUCLEIC ACID DELIVERY REAGENT AND RELATED PRODUCT THEREOF” (INSTITUTE OF BASIC MEDICAL SCIENCES CHINESE ACADEMY OF …, priority 2019, published 2023):
Structures can show the parent of a compound that is named as a salt.

Experiment: In vivo delivery of lipid-nucleic acid mixture (PGY-sRNA-26) by gavage, relative intake in blood and tissues by RT-qPCR
Parameters: species or system C57BL/6 male mice
Details: for oral delivery of sRNA single-chain nucleic acid into the blood, and lung, kidney, spleen, and heart tissues of mice / oral delivery of sRNA single-chain nucleic acid into the blood, and lung, kidney, spleen, heart, and intestinal tissue of mice: 100 μg lipid:1 nmol PGY-sRNA-26 per mouse, 12 hrs after gavage, vs free intake group; for number of organs into which nucleic acid is significantly delivered: among the 6 organs in the experiments
Protocol: The concentration of a lipid solution in chloroform was 10 mg/ml (stock solution), and grouping was performed according to the lipid compound number.
1 nmol of small RNA (as shown in Table 2) was dissolved in 400 μl of DEPC-treated water in a glass tube, and 10 μl of a corresponding lipid stock solution was added, to give a system containing 100 μg of lipid. The system was well mixed, heated for 15 min in a water bath at 90° C., and then naturally cooled, to obtain a lipid-nucleic acid mixture of the lipid and small RNA.
The C57BL/6 male mice used in the experiment were purchased from Beijing Vital River Laboratory Animal Technology Co., Ltd., about 6 weeks old, and weighed 20-24 g. They were kept in an SPF animal room of the Animal Center of the Institute of Basic Medical Sciences, Chinese Academy of Medical Sciences. The mice were fasted for 12 hrs before gavage.
The lipid-nucleic acid mixture was prepared following the method as described in Example 2. The prepared lipid-nucleic acid mixture was orally administered at a dose of 100 μg lipid:1 nmol single-stranded small RNA PGY-sRNA-26 per mouse.
1) Blank group: Mice (n=4) were given 500 μl of normal saline by gavage, and this group served as a blank control group;
2) Free intake group: Mice (n=4) were given sRNA solution (1 nmol/animal, 500 μl) by direct gavage, and this group served as a negative control group;
3) Lipid treatment group: Mice (n=4) were given 500 μl of the lipid-nucleic acid mixture prepared in step 2 by gavage.
12 hrs after gavage in each group of mice, 500 μl of blood was taken from the eyeball, and 1.5 ml of Trizol Reagent LS (purchased from Invitrogen) was added and mixed well for lysis. The tissue sample was added with 3 ml of Trizol Reagent LS. and homogenized for full lysis, wherein the tissue sample included lung/kidney/spleen/heart/gut. 1 ml of blood or tissue lysate was taken and RNA was extracted according to the following steps.
The blood or tissue lysate was centrifuged at 4° C., and 12,000 rpm for 5 min, the pellet was discarded, and Trizol was transferred to a new centrifuge tube.
Chloroform was added in an amount of 200 μL chloroform/mL Trizol, shaken fully until uniform, and allowed to stand at room temperature for 5 min.
The sample was centrifuged at 4° C., and 12,000 rpm, for 15 min.
The upper aqueous phase was pipetted to another centrifuge tube, and isopropanol was added in an amount of 0.4 mL isopropanol/mL Trizol, mixed well, and allowed to stand at a low temperature for 10-20 min.
The sample was centrifuged at 4° C., and 12,000 rpm, for 15 min, the supernatant was discarded, and the RNA pellet was at the bottom of the tube.
1 mL of 75% ethanol was added, and the centrifuge tube was shaken gently, to suspend the pellet.
The sample was centrifuged at 4° C., and 12,000 rpm, for 10 min, the supernatant was discarded, 1 mL of 75% ethanol was added, and the centrifuge tube was shaken gently, to suspend the pellet.
The sample was centrifuged at 4° C., and 12,000 rpm, for 10 min, the supernatant was discarded, and the sample was air dried at room temperature. The RNA sample was dissolved in 50-100 μL of RNase-free H2O, and the RNA concentration was quantified by determining the OD value.
The sRNA was reversely transcribed into cDNA using a reverse transcription kit (High-Capacity cDNA Reverse Transcription Kits, Applied Biosystems, cat. no. 4368813), following the stem-loop method (see, for example Real-time quantification of microRNAs by stem-loop RT-PCR, Nucleic Acids Res. 2005 Nov. 27; 33(20):e179, incorporated herein by reference). System for reverse transcription: template RNA (200 ng/μL) 10 μL, 10×RT buffer 2.0 μL, 25×dNTP Mix (100 mM) 0.8 μL, U6 RT stem-loop primer 2.0 μL, PGY-sRNA-26 RT stem-loop primer 2.0 μL, MultiScribe™ reverse transcriptase 1.0 μL, RNAase inhibitor 1.0 μL, and nuclease-free water H2O 1.2 μL. […]

[1] = significant difference compared to the control, 100 μg lipid:1 nmol PGY-sRNA-26, 12 hrs

## 1,2-myristin-3-palmitin [Lipid 80]
  oral delivery of sRNA single-chain nucleic acid into the blood, and lung, kidney, spleen, and heart tissues of mice: can effectively orally deliver
  number of organs into which nucleic acid is significantly delivered: two organs
[1]
  oral delivery of sRNA single-stranded nucleic acid into the heart tissue of mice: can significantly efficiently orally deliver
  oral delivery of sRNA single-stranded nucleic acid into the spleen tissue of mice: can significantly efficiently orally deliver

## CCCCCCCC/C=C\CCCCCCCC(=O)O[C@H](COC(=O)CCCCCCCCCCCCCCC)COP(=O)([O-])OCC[N+](C)(C)C [Lipid 86, 1-palmitoyl-2-oleoyl-sn-glycero-3-phosphocholine]
  oral delivery of sRNA single-chain nucleic acid into the blood, and lung, kidney, spleen, heart, and intestinal tissue of mice: can effectively orally deliver

## CCCCCCCCCCCCCCCC(=O)OC[C@H](COP(=O)(O)O[C@H]1C(O)C(O)C(O)[C@@H](O)C1O)OC(=O)CCCCCCCCCCCCCCC (stereo partly drawn) [Lipid 109, 1,2-dipalmitoyl-sn-glycero-3-phospho-(l′-myo-inositol) (ammonium salt)]
  oral delivery of sRNA single-chain nucleic acid into the blood, and lung, kidney, spleen, heart, and intestinal tissue of mice: can effectively orally deliver

## CCCCCCCCCCCCCCCC(=O)OC[C@@H](O)COP(=O)([O-])OCC[N+](C)(C)C [Lipid 113, 1-palmitoyl-2-hydroxy-sn-glycerol-3-phosphatidylcholine]
  oral delivery of sRNA single-chain nucleic acid into the blood, and lung, kidney, spleen, heart, and intestinal tissue of mice: can effectively orally deliver

## CCCCCCCCCCC/C=C/[C@@H](O)[C@@H](N)CO [Lipid 100, D-erythro-sphingosine (C16 group)]
  oral delivery of sRNA single-chain nucleic acid into the blood, and lung, kidney, spleen, heart, and intestinal tissue of mice: can effectively orally deliver
[1]
  oral delivery of sRNA single-stranded nucleic acid into the spleen tissue of mice: can significantly efficiently orally deliver

## CCCCCCCC/C=C\CCCCCCCC(=O)OC[C@H](COP(=O)(O)OCCN)OC(=O)CCCCCCC/C=C\CCCCCCCC [Lipid 72, 1,2-dioleoyl-sn-glycero-3-phosphatidylethanolamine]
  oral delivery of sRNA single-chain nucleic acid into the blood, and lung, kidney, spleen, and heart tissues of mice: can effectively orally deliver
[1]
  oral delivery of sRNA single-stranded nucleic acid into the lung tissue of mice: can significantly efficiently orally deliver

## CCCCCCCC/C=C\CCCCCCCC(=O)OCC(O)COP(=O)(O)OCCN (stereo not drawn) [Lipid 116, 1-(9Z-octadecenoyl)-sn-glycero-3-phosphoethanolamine]
  oral delivery of sRNA single-chain nucleic acid into the blood, and lung, kidney, spleen, heart, and intestinal tissue of mice: can effectively orally deliver

## CCCCCCCCCCCCCCCCC/C=C/[C@@H](O)[C@@H](N)CO [Lipid 97, D-erythro-sphingosine (C22 group)]
  oral delivery of sRNA single-chain nucleic acid into the blood, and lung, kidney, spleen, heart, and intestinal tissue of mice: can effectively orally deliver
  number of organs into which nucleic acid is significantly delivered: two organs
[1]
  oral delivery of sRNA single-stranded nucleic acid into the kidney tissue of mice: can significantly efficiently orally deliver
  oral delivery of sRNA single-stranded nucleic acid into the lung tissue of mice: can significantly efficiently orally deliver

## 1,2-stearin-3-olein [Lipid 77]
  oral delivery of sRNA single-chain nucleic acid into the blood, and lung, kidney, spleen, and heart tissues of mice: can effectively orally deliver
[1]
  oral delivery of sRNA single-stranded nucleic acid into the spleen tissue of mice: can significantly efficiently orally deliver

## CCCCCCCC/C=C\CCCCCCCC(=O)O[C@H](COC(=O)CCCCCCCCCCCCCCC)COP(=O)([O-])OCC[N+](C)(C)C [Lipid 118, 1-palmitoyl-2-oleoyl-sn-glycero-3-phosphatidylcholine]
  oral delivery of sRNA single-chain nucleic acid into the blood, and lung, kidney, spleen, heart, and intestinal tissue of mice: can effectively orally deliver

## CCCCCCCCC=CCCCCCCCC(=O)OCC(COC(=O)CCCCCCCCCCCCCCCCCCC)OC(=O)CCCCCCCC=CCCCCCCCC (stereo not drawn) [Lipid 78, 1,2-olein-3-arachidin]
  oral delivery of sRNA single-chain nucleic acid into the blood, and lung, kidney, spleen, and heart tissues of mice: can effectively orally deliver

## CCCCC/C=C\C/C=C\CCCCCCCC(=O)OC[C@H](COP(=O)([O-])OCC[N+](C)(C)C)OC(=O)CCCCCCC/C=C\C/C=C\CCCCC [Lipid 107, 1,2-dilinoleoyl-sn-glycero-3-phosphocholine]
  oral delivery of sRNA single-chain nucleic acid into the blood, and lung, kidney, spleen, heart, and intestinal tissue of mice: can effectively orally deliver

## N-palmitoyl-D-erythro-sphingosylphosphocholine [Lipid 105]
  oral delivery of sRNA single-chain nucleic acid into the blood, and lung, kidney, spleen, heart, and intestinal tissue of mice: can effectively orally deliver
[1]
  oral delivery of sRNA single-stranded nucleic acid into the blood of mice: can significantly efficiently orally deliver

## COC1=C(OC)C(=O)C(C/C=C(\C)CC/C=C(\C)CC/C=C(\C)CC/C=C(\C)CC/C=C(\C)CC/C=C(\C)CC/C=C(\C)CC/C=C(\C)CC/C=C(\C)CCC=C(C)C)=C(C)C1=O [Lipid 82, Q-10, Ubiquinone 50, Ubiquinone 10]
  oral delivery of sRNA single-chain nucleic acid into the blood, and lung, kidney, spleen, heart, and intestinal tissue of mice: can effectively orally deliver

## CCCCCCCC/C=C\CCCCCCCCCCCCCC(=O)N[C@@H](CO)[C@H](O)/C=C/CCCCCCCCCCCCC [Lipid 91, N-nervonoyl-D-erythro-sphingosine]
  oral delivery of sRNA single-chain nucleic acid into the blood, and lung, kidney, spleen, heart, and intestinal tissue of mice: can effectively orally deliver
[1]
  oral delivery of sRNA single-stranded nucleic acid into the kidney tissue of mice: can significantly efficiently orally deliver

## CCCCCCCCCCCCCCCCOC[C@H](COP(=O)([O-])OCC[N+](C)(C)C)OC(C)=O [Lipid 84, β-acetyl-γ-O-hexadecyl-L-α-phosphatidylcholine hydrate]
  oral delivery of sRNA single-chain nucleic acid into the blood, and lung, kidney, spleen, heart, and intestinal tissue of mice: can effectively orally deliver

## CCCCCCCCCCCCCCCC(=O)OCC(COP(=O)([O-])OCC[N+](C)(C)C)OC(=O)CCCCCCCCCCCCCCC (stereo not drawn) [Lipid 119, 1,2-dihexadecanoyl-sn-glycero-3-phosphocholine]
  oral delivery of sRNA single-chain nucleic acid into the blood, and lung, kidney, spleen, heart, and intestinal tissue of mice: can effectively orally deliver

## 1-palmitoyl-2-oleoyl-sn-glycero-3-phospho-(1′-rac-glycerol) (sodium salt) [Lipid 88]
  oral delivery of sRNA single-chain nucleic acid into the blood, and lung, kidney, spleen, heart, and intestinal tissue of mice: can effectively orally deliver
[1]
  oral delivery of sRNA single-stranded nucleic acid into the kidney tissue of mice: can significantly efficiently orally deliver

## 1,3-palmitin-2-myristin [Lipid 76]
  oral delivery of sRNA single-chain nucleic acid into the blood, and lung, kidney, spleen, and heart tissues of mice: can effectively orally deliver
  number of organs into which nucleic acid is significantly delivered: two organs
[1]
  oral delivery of sRNA single-stranded nucleic acid into the lung tissue of mice: can significantly efficiently orally deliver
  oral delivery of sRNA single-stranded nucleic acid into the spleen tissue of mice: can significantly efficiently orally deliver

## CCCCCCCCCCCCCCCCCCCC(=O)OCC(COC(=O)CCCCCCCCCCCCCCCCCCC)OC(=O)CCCCCCCCCCCCCCCCCCC [Lipid 112, Trieicosanoin]
  oral delivery of sRNA single-chain nucleic acid into the blood, and lung, kidney, spleen, heart, and intestinal tissue of mice: can effectively orally deliver

## CCCCCCCC/C=C\CCCCCCCC(=O)O[C@H](COC(=O)CCCCCCCCCCCCCCCCC)COP(=O)([O-])OCC[N+](C)(C)C [Lipid 87, 1-stearoyl-2-oleoyl-sn-glycero-3-phosphocholine]
  oral delivery of sRNA single-chain nucleic acid into the blood, and lung, kidney, spleen, heart, and intestinal tissue of mice: can effectively orally deliver
